Test results taken from ChEMBL document CHEMBL6127118, “Identification of Oral Bioavailable Coumarin Derivatives as Potential AR Antagonists Targeting Prostate Cancer” (J Med Chem, 2024).

Tests used:
Androgen receptor [1] = molecular target: T1, Androgen receptor (Homo sapiens, UniProt P10275); assay: Antagonist activity at DHT-induced Androgen receptor in human LNCaP cells transfected with ARR2PB-eGFP incubated for 3 days; assay type: cell-based
T1 sequence (P10275 whole entry): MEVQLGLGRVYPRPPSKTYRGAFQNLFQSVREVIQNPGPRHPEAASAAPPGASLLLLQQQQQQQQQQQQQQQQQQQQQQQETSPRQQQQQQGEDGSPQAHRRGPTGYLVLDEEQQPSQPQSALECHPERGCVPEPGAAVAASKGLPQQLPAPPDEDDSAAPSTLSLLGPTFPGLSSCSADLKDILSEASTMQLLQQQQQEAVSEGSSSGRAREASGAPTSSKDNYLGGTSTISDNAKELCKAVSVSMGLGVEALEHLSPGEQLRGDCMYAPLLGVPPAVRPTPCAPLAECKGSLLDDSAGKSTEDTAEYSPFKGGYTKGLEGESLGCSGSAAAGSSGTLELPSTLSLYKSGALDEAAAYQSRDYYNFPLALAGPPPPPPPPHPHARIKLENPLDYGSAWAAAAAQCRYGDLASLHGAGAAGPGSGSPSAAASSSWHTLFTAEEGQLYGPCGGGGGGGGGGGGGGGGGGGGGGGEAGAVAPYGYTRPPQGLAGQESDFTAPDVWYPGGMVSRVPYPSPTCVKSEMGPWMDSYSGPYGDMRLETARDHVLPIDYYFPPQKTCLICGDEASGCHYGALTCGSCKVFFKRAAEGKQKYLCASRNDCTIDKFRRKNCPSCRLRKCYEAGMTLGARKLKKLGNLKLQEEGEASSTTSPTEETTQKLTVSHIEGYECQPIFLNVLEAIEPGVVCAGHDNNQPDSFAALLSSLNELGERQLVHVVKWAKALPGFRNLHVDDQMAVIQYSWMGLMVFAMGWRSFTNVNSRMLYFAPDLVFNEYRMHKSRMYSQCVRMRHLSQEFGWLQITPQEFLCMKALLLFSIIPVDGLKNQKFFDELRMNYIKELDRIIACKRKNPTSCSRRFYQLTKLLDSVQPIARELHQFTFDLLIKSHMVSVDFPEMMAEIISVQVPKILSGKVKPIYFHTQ

Androgen receptor [2] = molecular target: Androgen receptor (Homo sapiens, UniProt P10275, W742C); assay: Antagonist activity at DHT-induced Androgen receptor W741C mutant in human PC-3 cells transfected with ARR2PB-Luc by Dual-Luciferase Reporter assay; assay type: cell-based
Androgen receptor (Homo sapiens, UniProt P10275, W742C), sequence (P10275 whole entry W742C): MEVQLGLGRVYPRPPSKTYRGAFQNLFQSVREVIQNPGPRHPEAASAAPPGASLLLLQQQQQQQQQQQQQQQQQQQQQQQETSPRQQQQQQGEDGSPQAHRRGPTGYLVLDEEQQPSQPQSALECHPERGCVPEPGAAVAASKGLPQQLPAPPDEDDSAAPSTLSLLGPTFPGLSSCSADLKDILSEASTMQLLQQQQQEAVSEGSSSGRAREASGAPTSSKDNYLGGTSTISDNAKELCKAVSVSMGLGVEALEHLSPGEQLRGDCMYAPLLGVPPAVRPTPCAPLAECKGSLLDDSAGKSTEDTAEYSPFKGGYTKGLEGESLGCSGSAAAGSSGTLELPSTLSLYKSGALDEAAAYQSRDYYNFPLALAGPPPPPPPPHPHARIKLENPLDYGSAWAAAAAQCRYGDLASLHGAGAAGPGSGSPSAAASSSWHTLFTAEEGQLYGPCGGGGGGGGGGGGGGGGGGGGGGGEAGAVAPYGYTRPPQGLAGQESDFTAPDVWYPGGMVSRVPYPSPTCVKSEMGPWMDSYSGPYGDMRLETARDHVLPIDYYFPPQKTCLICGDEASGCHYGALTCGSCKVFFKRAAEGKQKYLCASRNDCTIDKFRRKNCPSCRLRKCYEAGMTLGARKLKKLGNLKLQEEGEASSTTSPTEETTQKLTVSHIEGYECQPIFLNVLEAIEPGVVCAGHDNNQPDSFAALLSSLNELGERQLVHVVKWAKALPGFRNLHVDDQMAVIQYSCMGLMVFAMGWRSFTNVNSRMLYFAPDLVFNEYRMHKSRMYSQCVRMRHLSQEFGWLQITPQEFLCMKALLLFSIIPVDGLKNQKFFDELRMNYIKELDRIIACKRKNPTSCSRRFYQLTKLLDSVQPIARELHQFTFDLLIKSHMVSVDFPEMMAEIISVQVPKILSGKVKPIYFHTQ

[3] = Apparent volume of distribution in Sprague-Dawley rat at 1 mg/kg, iv; assay type: ADME, organism-based; settings: in vivo, read-out: Vz
[4] = Clearance in Sprague-Dawley rat at 5 mg/kg, po; assay type: ADME, organism-based; settings: in vivo
[5] = Half life in Sprague-Dawley rat at 5 mg/kg, po; assay type: ADME, organism-based; settings: in vivo
GES1 = assay: (§1) Antiproliferative activity against human GES1 cells incubated for 72 hrs by MTT assay; assay type: toxicity, cell-based; settings: ges1, 72 h, time 72 hrs
[6] = AUC (0 to t) in Sprague-Dawley rat at 5 mg/kg, po; assay type: ADME, organism-based; settings: in vivo
[7] = Apparent volume of distribution in Sprague-Dawley rat at 5 mg/kg, po; assay type: ADME, organism-based; settings: in vivo
Androgen receptor [8] = molecular target: Androgen receptor (Homo sapiens, UniProt P10275, F877L/T878A); assay: Antagonist activity at DHT-induced Androgen receptor F876L/[…] mutant in human PC-3 cells transfected with ARR2PB-Luc by Dual-Luciferase Reporter assay; assay type: cell-based
Androgen receptor (Homo sapiens, UniProt P10275, F877L/T878A), sequence (P10275 whole entry F877L/T878A): as the sequence (P10275 whole entry W742C) above, with C742W, F877L, T878A counted along it

[9] = Toxicity in CB17 SCID mouse model xenografted with human LNCaP cells assessed as signs of toxicity at 60 mg/kg, po bid for 32 days; assay type: organism-based; settings: in vivo, 768 h, time 32 day
[10] = Toxicity in CB17 SCID mouse model xenografted with human LNCaP cells assessed as drug tolerance at 60 mg/kg, po bid for 32 days; assay type: organism-based; settings: in vivo, 768 h, time 32 day
[11] = Oral bioavailability in Sprague-Dawley rat at 5 mg/kg; assay type: ADME, organism-based; settings: in vivo
[12] = Cmax in Sprague-Dawley rat at 1 mg/kg, iv; assay type: ADME, organism-based; settings: in vivo
[13] = Half life in Sprague-Dawley rat at 1 mg/kg, iv; assay type: ADME, organism-based; settings: in vivo
[14] = Toxicity in CB17 SCID mouse model xenografted with human LNCaP cells assessed as body weight loss at 60 mg/kg, po bid for 32 days; assay type: organism-based; settings: in vivo, 768 h, time 32 day
[15] = Clearance in Sprague-Dawley rat at 1 mg/kg, iv; assay type: ADME, organism-based; settings: in vivo
[16] = Cmax in Sprague-Dawley rat at 5 mg/kg, po; assay type: ADME, organism-based; settings: in vivo
[17] = AUC (0 to t) in Sprague-Dawley rat at 1 mg/kg, iv; assay type: ADME, organism-based; settings: in vivo
[18] = Antiproliferative activity against human Chang liver cells incubated for 72 hrs by MTT assay; assay type: toxicity, cell-based
NIH3T3 = assay: Antiproliferative activity against mouse NIH3T3 cells incubated for 72 hrs by MTT assay; assay type: toxicity, cell-based; settings: nih3t3, 72 h
[19] = as §1; assay type: toxicity, cell-based; settings: GES1 cells
PC-3 = assay: Antiproliferative activity against androgen independent-human PC-3 cells incubated for 72 hrs by MTT assay; settings: PC-3, 72 h
CWR22R = assay: Antiproliferative activity against androgen independent-human 22Rv1 cells incubated for 72 hrs by MTT assay; settings: 22Rv1, 72 h
LNCaP C4-2B = assay: Antiproliferative activity against androgen independent-human LNCaP C4-2B cells incubated for 72 hrs by MTT assay
DU-145 = assay: Antiproliferative activity against androgen independent-human DU-145 cells incubated for 72 hrs by MTT assay; settings: DU-145, 72 h
LNCaP = assay: Antiproliferative activity against androgen dependent-human LNCaP cells incubated for 72 hrs by MTT assay
[20] = Inhibition of DHT-induced secreted PSA production in human LNCaP cells
[21] = molecular target: T2, Mineralocorticoid receptor (Homo sapiens, UniProt P08235); assay: Antagonist activity at aldosterone-induced Mineralocorticoid receptor (unknown origin) transfected in HEK293T cells by Dual-Luciferase Reporter assay
T2 sequence (P08235 whole entry): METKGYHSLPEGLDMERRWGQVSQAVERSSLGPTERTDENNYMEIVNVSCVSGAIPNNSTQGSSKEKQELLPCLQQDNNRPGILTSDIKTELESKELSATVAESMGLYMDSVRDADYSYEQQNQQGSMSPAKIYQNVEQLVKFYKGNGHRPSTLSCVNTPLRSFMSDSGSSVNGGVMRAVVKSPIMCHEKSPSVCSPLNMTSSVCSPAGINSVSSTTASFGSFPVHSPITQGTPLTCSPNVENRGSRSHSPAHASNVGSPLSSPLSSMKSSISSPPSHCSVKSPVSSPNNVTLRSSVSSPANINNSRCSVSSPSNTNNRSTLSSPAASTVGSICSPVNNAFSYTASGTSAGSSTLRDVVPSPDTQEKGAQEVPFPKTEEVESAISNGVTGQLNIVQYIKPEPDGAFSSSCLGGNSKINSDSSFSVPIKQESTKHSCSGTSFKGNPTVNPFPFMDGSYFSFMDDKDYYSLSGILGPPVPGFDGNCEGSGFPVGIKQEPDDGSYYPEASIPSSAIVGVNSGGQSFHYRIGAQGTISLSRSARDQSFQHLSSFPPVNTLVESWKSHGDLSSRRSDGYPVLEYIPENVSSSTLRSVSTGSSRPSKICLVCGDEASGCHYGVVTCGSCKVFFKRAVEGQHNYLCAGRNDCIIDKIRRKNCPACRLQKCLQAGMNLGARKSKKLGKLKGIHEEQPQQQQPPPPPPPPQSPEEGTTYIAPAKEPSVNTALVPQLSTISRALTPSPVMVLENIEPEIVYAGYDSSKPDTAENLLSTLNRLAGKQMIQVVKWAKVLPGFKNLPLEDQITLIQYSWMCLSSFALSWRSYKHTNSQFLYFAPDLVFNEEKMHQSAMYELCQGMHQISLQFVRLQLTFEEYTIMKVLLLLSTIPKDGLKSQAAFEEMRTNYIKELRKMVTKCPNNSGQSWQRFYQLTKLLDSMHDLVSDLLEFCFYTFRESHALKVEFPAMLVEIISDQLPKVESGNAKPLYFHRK

## O=c1cc(C(F)(F)F)c2ccc(NCc3ccc(O)cc3)cc2o1
Androgen receptor [1]
  IC50: 640 nM

## O=c1cc(C(F)(F)F)c2ccc(NCc3ccccc3Br)cc2o1
Androgen receptor [1]
  IC50: 100 nM

## CN(Cc1ccc(F)cc1)c1ccc2c(C(F)(F)F)cc(=O)oc2c1
Androgen receptor [2]
  IC50: 160 nM
[3]
  Vd: 1.81 L/kg
[4]
  CL/F: 58.5 mL/min/kg
[5]
  half-life: 289 min
GES1
  Activity: Non-Toxic
[6]
  AUC(0-t): 1410 ng·h/mL
[7]
  Vz: 24.6 L/kg
Androgen receptor [8]
  IC50: 170 nM
[9]
  Activity: Non-Toxic
[10]
  Activity: Non-Toxic
Androgen receptor [1]
  IC50: 51 nM
[11]
  bioavailability: 66.2%
[12]
  Cmax: 1060 ng/mL
[13]
  half-life: 30 min
[14]
  Activity: Non-Toxic
[15]
  clearance: 41 mL/min/kg
[16]
  Cmax: 353 ng/mL
[17]
  AUC(0-t): 426 ng·h/mL
[18]
  Activity: Non-Toxic
NIH3T3
  Activity: Non-Toxic

## O=C(Nc1ccc2c(C(F)(F)F)cc(=O)oc2c1)c1ccc(Br)cc1
Androgen receptor [1]
  IC50: > 10000 nM

## O=c1cc(C(F)(F)F)c2ccc(NCc3ccc(Br)c(F)c3)cc2o1
Androgen receptor [1]
  IC50: 69 nM

## O=c1cc(C(F)(F)F)c2ccc(NCc3ccc(Cl)cc3)cc2o1
[3]
  Vd: 2.3 L/kg
[6]
  AUC(0-t): 103 ng·h/mL
[11]
  bioavailability: 13%
[12]
  Cmax: 395 ng/mL
[13]
  half-life: 16.2 min
[15]
  clearance: 97.7 mL/min/kg
[16]
  Cmax: 258 ng/mL
[17]
  AUC(0-t): 158 ng·h/mL

## O=c1cc(C(F)(F)F)c2ccc(NCc3ccc(F)cc3)cc2o1
[3]
  Vd: 9.26 L/kg
[19]
  IC50 at 72 h: 16 µM
[6]
  AUC(0-t): 4.09 ng·h/mL
PC-3
  IC50: 21.3 µM
CWR22R
  IC50: 24.2 µM
LNCaP C4-2B
  IC50: 4.91 µM
Androgen receptor [1]
  IC50: 24 nM
[11]
  bioavailability: 2.5%
[12]
  Cmax: 82.1 ng/mL
[13]
  half-life: 12.6 min
DU-145
  IC50: 6.32 µM
LNCaP
  IC50: 1.9 µM
[15]
  clearance: 507 mL/min/kg
[16]
  Cmax: 10.8 ng/mL
[17]
  AUC(0-t): 32.4 ng·h/mL

## CCN(Cc1ccc(F)cc1)c1ccc2c(C(F)(F)F)cc(=O)oc2c1
Androgen receptor [1]
  IC50: 83 nM

## O=c1cc(C(F)(F)F)c2ccc(NCc3ccc(Br)cc3)cc2o1
Androgen receptor [1]
  IC50: 42 nM

## O=c1cc(C(F)(F)F)c2cc([N+](=O)[O-])c(OCc3ccc(Br)cc3)cc2o1
Androgen receptor [1]
  IC50: > 10000 nM

## CCN(Cc1cc(F)ccc1F)c1ccc2c(C(F)(F)F)cc(=O)oc2c1
Androgen receptor [1]
  IC50: 430 nM

## O=c1cc(C(F)(F)F)c2ccc(NCc3ccc(C(F)(F)F)cc3)cc2o1
Androgen receptor [1]
  IC50: 110 nM

## O=c1cc(C(F)(F)F)c2cc(N(CC(F)(F)F)CC(F)(F)F)c(OCc3ccc(Br)cc3)cc2o1
Androgen receptor [1]
  IC50: > 10000 nM

## CNC(=O)c1ccc(N2C(=S)N(c3ccc(C#N)c(C(F)(F)F)c3)C(=O)C2(C)C)cc1F [ENZALUTAMIDE]
GES1
  Activity: Non-Toxic
[19]
  IC50 at 72 h: > 50 µM
PC-3
  IC50: > 50 µM
CWR22R
  IC50: > 50 µM
[20]
  IC50: 420 nM
LNCaP
  IC50: 23.3 µM

## C[C@]12CCC(=O)C[C@@H]1CC[C@@H]1[C@@H]2CC[C@]2(C)[C@@H](O)CC[C@@H]12 [STANOLONE]
[21]
  IC50: 1.24 nM
